Data reported in patent US9034859B2, “Sulfated oxysterol and oxysterol sulfation by hydroxysterol sulfotransferase promote lipid homeostasis and liver proliferation” (Virginia Commonwealth University, priority 2011, dated 2015).
Values joined by “and” are separate entries in the source; they are usually repeats but may differ in a detail not shown here. Identical values can stand only once.

Legend:
PCNA = PCNA labeling index in liver histology; format: in vivo, C57BL/6 mice; conditions: liver specimen of 25HC3S treated mice (5 mg/kg, 48 h)
Procedure: Metabolism. (Accepted)]. […] Antigen retrieval was performed by microwaving of the sections in citrate buffer (PH 6.0) for 10 min. Sections were incubated overnight at […] with the primary monoclonal antibody against proliferating cell nuclear antigen (PCNA) (ab29, Abcam, Cambridge, Mass.). After washing with PBS, immobilized antibodies were detected by the avidin-biotin-peroxidase complex technique (Vectastain@ ABC Kit, Vector Laboratories, Burlingame, Calif.). DAB (Vector Laboratories, Burlingame, Calif.) and haematoxylin (Sigma-Aldrich, St. Louis, Mo.) was used as the chromogen and nuclear counterstain, respectively. […] The quantitation of PCNA expression was expressed as the PCNA labeling index.

[1] = tested on: apoptotic and cell cycle related genes; experiment: Mouse Cell cycle RT2 Profiler PCR Array of liver tissues; format: in vivo, C57BL/6 mice; conditions: 5 mg/kg, versus vehicle
Procedure: The real-time PCR array was performed using the Mouse Cell cycle RT2 Profiler™ PCR Array consisting of 84 key genes involved in apoptosis and proliferation as the manufacturer's instruction (SABiosciences, Frederick, Md.). Total mRNA was reverse-transcribed to cDNA as described above. Three of biologically-distinct specimens were pooled to reduce variance. The cDNA was then amplified precisely like real-time PCR in the primers-preloaded PCR plates on the ABI 7500 Fast Real-Time PCR System. ΔΔCT values between different stimulated samples were analyzed as the manufacturer's instruction, which output p-values for fold-regulation change.

[2] = Quantification of hepatic lipids and liver morphology, long-term treatment; format: in vivo, C57BL/6J female mice; conditions: HFD mice
Procedure: (§1) Animal studies were approved by Institutional Animal Care and Use Committee of McGuire Veterans Affairs Medical Center and were conducted in accordance with the Declaration of Helsinki, the Guide for the Care and Use of Laboratory Animals, and all applicable regulations. To examine the effect of 25HC3S on diet-induced lipid accumulation in sera and liver, 8-week-old female C57BL/6J mice (Charles River, Wilmington, Mass.) were randomly assigned to three groups: the first control group was fed a chow diet; the high fat diet (HFD) group was fed a HFD (Harlan Teklad, Madison, Wis.) containing 42% kcal from fat, 43% kcal from carbohydrate, 15% kcal from protein and 0.2% cholesterol; and the high cholesterol diet (HCD) group was fed a 2% cholesterol diet with 18% kcal from fat, 58% kcal from carbohydrate and 24% kcal from protein for 10 weeks, respectively. All mice were housed under identical conditions in an aseptic facility and given free access to water and food. At the end of each period, the mice were intraperitoneally injected with vehicle solution (ethanol/PBS; Vehicle), 25HC (25 mg/kg), or 25HC3S (25 mg/kg) for 2 times and fasted over night for acute treatment (n=15-17 for each group) or once every three days for 6 weeks (n=16 for each group) and fasted 5 hrs for long-term treatment; and blood samples were collected. Serum triglyceride, total cholesterol, high density lipoprotein-cholesterol, glucose, alkaline phosphatase (ALK), alanine aminotransferase (ALT), and aspartate aminotransferase (AST) were measured using standard enzymatic techniques in the clinical laboratory at McGuire Veterans Affairs Medical Center. Lipoprotein profiles in sera were analyzed by HPLC as following described.
For each mouse, three specimens from different regions of the liver were collected and fixed in 4% paraformaldehyde in 0.1 M phosphate buffer at room temperature overnight. The regions of the specimens were standardized for all mice. The paraffin-embedded tissue sections (4 μm) were stained with hematoxylin and eosin.
Liver tissues were homogenized, and lipids were extracted with a mixture of chloroform and methanol (2:1), and filtered. The extracts, 0.2 ml, were evaporated to dryness and dissolved in 100 μl of isopropanol containing 10% of triton X-100 for cholesterol assay (Wako Chemicals USA, Richmond, Va.), the NEFA solution (0.5 g of EDTA-Na2, 2 g of Triton X-100, 0.76 ml of 1N NaOH, and 0.5 g of sodium azide/1, pH 6.5) for free fatty acid assay (Wako Chemicals USA, Richmond, Va.), or isopropanol only for triglyceride assay (Fisher Scientific, Pittsburgh, Pa.). All of the assays were performed according to the manufacturer's instructions, respectively. Each lipid concentration was normalized to liver weight.

[3] = tested on: lipogenic gene expression; experiment: Relative hepatic mRNA expression by real-time RT-PCR, long-term treatment; format: in vivo, C57BL/6J female mice; conditions: liver, HFD mice
Procedure: as §1
Total RNA was isolated with SV Total RNA Isolation Kit (Promega, Madison, Wis.), which included DNase treatment. Total RNA, 2 μg, was used for the first-strand cDNA synthesis as recommended by the manufacturer (Invitrogen, Carlsbad, Calif.). Real-time RT-PCR was performed using SYBR Green as indicator on ABI 7500 Fast Real-Time PCR System (Applied Biosystems, Foster City, Calif.). All primer/probe sets for real-time PCR were TaqMan gene expression assays (Applied Biosystems, Foster City, Calif.). Amplifications of β-actin and GAPDH were used as internal controls. Relative messenger RNA (mRNA) expression was quantified with the comparative cycle threshold (Ct) method and was expressed as 2^−ΔΔCt. Suitable primers were utilized.

[4] = once every three days for 6 weeks, mean ± SD, n=5-6

CC(CCCC(C)(C)O)C1CCC2C3CC=C4CC(OS(=O)(=O)O)CCC4(C)C3CCC12C (stereo not drawn) [25HC3S, 25-hydroxycholesterol-3-sulfate]
PCNA labeling index (PCNA): 12% | decrease of Apaf1 expression ([1]; 48 h): 3 fold | decrease of Chek2 expression ([1]; 48 h): 4.5 fold | Fold change Apaf1(NM_009684) ([1]; 2 days, pooled mRNA): −3.21 fold | Fold change Atr(NM_019864) ([1]; 2 days, pooled mRNA): −2.15 fold | Fold change Bag1(NM_009736) ([1]; 2 days, pooled mRNA): 2.0488 fold | Fold change Bnip3(NM_009760) ([1]; 2 days, pooled mRNA): 2.0112 fold | Fold change Brca1(NM_009764) ([1]; 2 days, pooled mRNA): −1.87 fold | Fold change Ccnb2(NM_007630) Cyclin B2 ([1]; 2 days, pooled mRNA): 1.90 fold | Fold change Ccne2(NM_009830) Cyclin E2 ([1]; 2 days, pooled mRNA): 2.52 fold | Fold change Cdc25a(NM_007658) ([1]; 2 days, pooled mRNA): 1.53 fold | Fold change Cdc25c(NM_009860) ([1]; 2 days, pooled mRNA): 1.56 fold | Fold change Cdkn1a(NM_007669) ([1]; 2 days, pooled mRNA): 3.0411 fold | Fold change Chek2(NM_016681) ([1]; 2 days, pooled mRNA): −4.65 fold | Fold change E2f3(NM_010093) ([1]; 2 days, pooled mRNA): 2.0193 fold | Fold change Ep300(NM_177821) ([1]; 2 days, pooled mRNA): 1.8114 fold | Fold change Esr1(NM_007956) ([1]; 2 days, pooled mRNA): 2.2535 fold | Fold change Gadd45a(NM_007836) ([1]; 2 days, pooled mRNA): −1.59 fold | Fold change Hif1a(NM_031168) ([1]; 2 days, pooled mRNA): 1.7576 fold | Fold change Mdm2(NM_010786) ([1]; 2 days, pooled mRNA): 1.6222 fold | Fold change Myod1(NM_010866) ([1]; 2 days, pooled mRNA): 1.56 fold | Fold change Nf1(NM_010897) ([1]; 2 days, pooled mRNA): 2.10 fold | Fold change Pcna(NM_011045) ([1]; 2 days, pooled mRNA): 3.7 fold and 3.77 fold | Fold change Prkca(NM_011101) ([1]; 2 days, pooled mRNA): 2.29 fold | Fold change Tnf(NM_013693) ([1]; 2 days, pooled mRNA): −2.76 fold | Fold change Tnfrsf10b(NM_020275) ([1]; 2 days, pooled mRNA): −2.28 fold | Fold change Trp73(NM_011642) ([1]; 2 days, pooled mRNA): 2.5194 fold | Fold change Wt1(NM_144783) ([1]; 2 days, pooled mRNA): 3.9 fold and 3.90 fold | Fold change Xrcc5(NM_009533) ([1]; 2 days, pooled mRNA): −1.90 fold | hepatic cholesterol ester concentration [2]: not affected | lipid inclusions in liver (H&E morphology) [2]: significantly decreased | reduction of hepatic free cholesterol ([2]; normalized by liver weight): 28% | reduction of hepatic free fatty acid ([2]; normalized by liver weight): 23% | reduction of hepatic total cholesterol ([2]; normalized by liver weight): 15% | reduction of hepatic triglyceride ([2]; normalized by liver weight): 30% | decrease of ACC1 mRNA level ([3]; long-term treatment): 41% | decrease of CD36 mRNA ([3]; long-term treatment): 49% | decrease of FAS mRNA level ([3]; long-term treatment): 24% | decrease of GPAM mRNA ([3]; long-term treatment): 19% | decrease of SREBP-1c mRNA level ([3]; long-term treatment): 23% | suppression of IL1α expression ([3]; long-term treatment): 53% | suppression of IL1β expression ([3]; long-term treatment): 58% | suppression of TNFα expression ([3]; long-term treatment): 47% | ABCA1 relative hepatic mRNA [3, 4]: 0.80 ± 0.12 | ABCG1 relative hepatic mRNA [3, 4]: 0.72 ± 0.19 | ACC1 relative hepatic mRNA [3, 4]: 0.63 ± 0.08 | CD36 relative hepatic mRNA [3, 4]: 0.47 ± 0.08 | FAS relative hepatic mRNA [3, 4]: 0.73 ± 0.16 | GPAM relative hepatic mRNA [3, 4]: 0.81 ± 0.10 | IL1α relative hepatic mRNA [3, 4]: 0.54 ± 0.14 | IL1β relative hepatic mRNA [3, 4]: 0.58 ± 0.27 | IκBα relative hepatic mRNA [3, 4]: 1.48 ± 0.38 | LDLR relative hepatic mRNA [3, 4]: 0.79 ± 0.13 | LXRα relative hepatic mRNA [3, 4]: 0.95 ± 0.24 | MTTP relative hepatic mRNA [3, 4]: 0.78 ± 0.09 | NFκB relative hepatic mRNA [3, 4]: 0.86 ± 0.22 | PLTP relative hepatic mRNA [3, 4]: 0.60 ± 0.11 | SRB1 relative hepatic mRNA [3, 4]: 0.87 ± 0.20 | SREBP-1c relative hepatic mRNA [3, 4]: 0.76 ± 0.08 | TNFα relative hepatic mRNA [3, 4]: 0.60 ± 0.34
